The values below come from patent US20220409617A1, “Drug Formulations and Methods of Treatment for Metabolic Disorders” (The Regents of the University of California, priority 2019, published 2022).

For assay [1], the system named is mouse embryonic fibroblasts (MEFs). In words: Ceramide-induced (C16:0 CER, C2-ceramide) mitochondrial fragmentation. In kind it is cell-based. Here is the method:
(§1) 3T3-L1 cells were maintained in DMEM with 10% FBS and 1% penicillin-streptomycin until induced to differentiate. 3T3-L1 pre-adipocytes were differentiated as described in (M. P. Valley, et al., Anal. Biochem. 505: 43-50, 2016, the disclosure of which is incorporated herein by reference) with slight modifications. Briefly, pre-adipocytes were grown to confluence. After 2 d, cells were induced with maintenance media containing 500 μM IBMX (15879, Sigma-Aldrich, St. Louis, Mo.), 1 μM dexamethasone (D4902, Sigma-Aldrich), 5 μg/mL bovine insulin (10516, Sigma-Aldrich), and 5 μM troglitazone (50-115-0786, ApexBio). Media was changed every 2-3 d for 7 d. On day 7 post-induction, media was changed to maintenance media+5 μg/mL bovine insulin. On day 9 post-induction, media was changed to maintenance media. Mature adipocytes were used 12-14 d post-induction for all experiments. LSL-KrasG12D mouse embryonic fibroblasts (MEFs) with and without Cre-mediated deletion of the STOP cassette were obtained from David Tuveson (Cold Spring Harbor Laboratory, Cold Spring Harbor N.Y., USA) in 2000. p53^flox/flox MEFs were derived in house (2015) from C57BL/6 mice using standard techniques and immortalized by transient expression of Cre recombinase and deletion of p53. MEFs were cultured and maintained in DMEM with 10% FBS and 1% penicillin-streptomycin. A549 cells were cultured in DMEM with 10% FBS, 1% penicillin-streptomycin and 1% sodium pyruvate. Stock solution of palmitic acid (ACROS Organics, cat # AC129702500) was prepared at 100 mM in ethanol. Palmitate (250 μM) was conjugated to 1% (w/v) fatty-acid free bovine serum albumin (Sigma, A8806) in DMEM at 37° C. for 20 min. For all immunofluorescence assays, 8,000 MEFs were seeded into 8-chamber slides (Cellvis, cat # C8-1.5H-N) 12-16 h before treatment. Cells were pre-treated with sphingolipid-like compound 893 (5 μM in water), myriocin (10 μM in methanol), fumonisin-B1 (30 μM in DMSO), or celastrol (500 nM in DMSO) for 3 h followed by a 3 h treatment with BSA-conjugated palmitate mixture or BSA alone. Where cells were treated with C2-ceramide (50 μM in DMSO) or C16:0 ceramide (100 μM in ethanol) for 3 h, cells were pre-treated with sphingolipid-like compound 893 for 1-3 h as indicated, mdivi-1 (50 μM in DMSO) for 1 h or 24 h, M1 (5 μM in DMSO) for 24 h, mdivi-1 and M1 together for 24 h, leflunomide (50 μM in methanol) for 1 h or 24 h, or with P110 (1 μM in water) for 1 h or 12 h. LSL or KRAS^G12D MEFs were treated with sphingolipid-like compound 893 (5 μM) for 6 h prior to fixation.
MEFs were washed twice with PBS and fixed with 4% paraformaldehyde for 10 min at RT. Cells were permeabilized with 0.3% Triton X-100 in blocking buffer containing 10% fetal bovine serum for 20 min at 37° C. followed by overnight incubation with mouse anti-citrate synthase (sc-390693, Santa Cruz Biotechnology; dilution, 1:200) or rabbit-anti-DRP1 at 1:100 (#8570, Cell Signaling Technology) at 4° C. Cells were then washed twice with PBS and incubated with AlexaFluor 488 goat anti-mouse (A28175, Invitrogen) or AlexaFluor 594 donkey anti-rabbit (A32754, Invitrogen) secondary antibodies at RT followed by 5 min incubation with 1 μg/ml DAPI and 2 washes in PBS. For NADH autofluorescence studies, mice were gavaged with vehicle or 120 mg/kg sphingolipid-like compound 893 at ZT8.5 (4-10.5 h before sacrifice between ZT12.5 and ZT18). Post sacrifice, livers were excised, washed 3× with PBS, placed in DMEM supplemented with 10% FBS and 1% penicillin-streptomycin, and immediately imaged. NADH/NADPH autofluorescence was detected with 740 nm excitation and 450±50 nm detectors using a Mai Tai two-photon laser. Fluorescence microscopy was performed on a Zeiss LSM 780 confocal using a 63× oil objective with a […] numerical aperture (NA) or using a Nikon TE2000-S inverted epifluorescence microscope with a 100× oil objective (1.3 NA) and a Photometrics CoolSNAP ES2 monochrome CCD camera. […]

The subject of the next assay is A549 lung cancer cells. In words: KRAS-mediated mitochondrial fission in A549 cells. The format is cell-based, human. To be noted: A549, oncogenic KRAS; 893 5 μM 1 h, leflunomide 50 μM 24 h. As for the experimental part: as §1, with “Where cells were treated with C2-ceramide (50 μM in DMSO) or C16:0 ceramide (100 μM in ethanol) for 3 h, cells were pre-treated with sphingolipid-like compound 893 for 1-3 h as indicated, mdivi-1 (50 μM in DMSO) for 1 h or 24 h, M1 (5 μM in DMSO) for 24 h, mdivi-1 and M1 together for 24 h, leflunomide (50 μM in methanol) for 1 h or 24 h, or with P110 (1 μM in water) for 1 h or 12 h. LSL or KRAS^G12D MEFs were treated with sphingolipid-like compound 893 (5 μM) for 6 h prior to fixation.” left out
MEFs were washed twice with PBS and fixed with 4% paraformaldehyde for 10 min at RT. […] NADH/NADPH autofluorescence was detected with 740 nm excitation and 450±50 nm detectors using a Mai Tai two-photon laser. Fluorescence microscopy was performed on a Zeiss LSM 780 confocal using a 63× oil objective with a […] numerical aperture (NA) or using a Nikon TE2000-S inverted epifluorescence microscope with a 100× oil objective (1.3 NA) and a Photometrics CoolSNAP ES2 monochrome CCD camera. […]

The conditions of assay [2]: mouse, in vivo; cited from earlier work.

For `Cc1oncc1C(=O)Nc1ccc(C(F)(F)F)cc1` [leflunomide], the “Protection from ceramide-induced mitochondrial fragmentation” value in assay [1] (MEFs, C16:0 CER 100 μM or C2-ceramide 50 μM 3 h, 893 5 μM, mdivi-1 50 μM, M1 5 μM, leflunomide 50 μM, P110 1 μM) is “blocked C16:0 ceramide-induced mitochondrial fragmentation after a 24 h, but not a 1 h, pre-incubation”. Moreover, the “Potency relative to compound 893 (less potent)” value in assay [1] (blocking ceramide-induced mitochondrial fragmentation in vitro) came out at 10 fold. Further, in the assay on A549 lung cancer cells, the “Reversal of mitochondrial fragmentation / tubularity in A549 cells” value was “did not reverse mitochondrial fragmentation in A549 lung cancer cells”. For the same molecule, the “Food intake and body weight in obese mice” value in assay [2] is given as “failed to reduce food intake or body weight in obese mice”.
